Target: KRAS G12C (Homo sapiens (Human), UniProt P01116, C118A/G12C)
Assay: 2 h coupled exchange assay
Assay type: biochemical
Conditions: Avg 2 h Coupled exchange IC50, 2 h compound pre-incubation, SOS-mediated nucleotide exchange
Protocol: The term “2 h coupled exchange assay” or “20 h coupled exchange assay” as used herein refers to the assay described in the Section entitled “BIOLOGICAL EVALUATION.”

Sequence of KRAS G12C (P01116 other isoform, or with tags, fused parts or gaps G12C/C118A): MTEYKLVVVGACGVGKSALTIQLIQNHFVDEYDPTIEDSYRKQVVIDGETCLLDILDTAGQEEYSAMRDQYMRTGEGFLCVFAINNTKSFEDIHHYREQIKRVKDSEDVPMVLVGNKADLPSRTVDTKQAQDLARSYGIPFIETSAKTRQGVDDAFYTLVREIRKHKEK

SMILES	IC50
Cc1ccc2[nH]ncc2c1-c1c(C#N)c(N2CCC3(CN(C(=O)/C=C/CF)C3)C2)nc2c1CCC(C)(C)C2 [Example 13-6, 2-(2-((2E)-4-fluoro-2-butenoyl)-2,6-diazaspiro[3.4]octan-6-yl)-7,7-dimethyl-4-(5-methyl-1H-indazol-4-yl)-5,6,7,8-tetrahydro-3-quinolinecarbonitrile]	0.169 µM
Cc1ccc2[nH]ncc2c1-c1c(C#N)c(N2CCC3(CN(C(=O)/C=C/C(F)(F)F)C3)C2)nc2c1CCC(C)(C)C2 [Example 13-7, 7,7-dimethyl-4-(5-methyl-1H-indazol-4-yl)-2-(2-((2E)-4,4,4-trifluoro-2-butenoyl)-2,6-diazaspiro[3.4]octan-6-yl)-5,6,7,8-tetrahydro-3-quinolinecarbonitrile]	0.229 µM
C=CC(=O)N1CC2(CCN(c3nc4c(c(-c5c(C)ccc6[nH]ncc56)c3C#N)CN(C)CC4)C2)C1 [Example 13-22, 6-methyl-4-(5-methyl-1H-indazol-4-yl)-2-(2-(2-propenoyl)-2,6-diazaspiro[3.4]octan-6-yl)-5,6,7,8-tetrahydro-1,6-naphthyridine-3-carbonitrile]	0.259 µM
C=CC(=O)N1CC2(CCN(c3nc4c(c(-c5ccccc5Cl)c3C#N)CC(C)(C)C4)C2)C1 [Example 13-23, 4-(2-chlorophenyl)-6,6-dimethyl-2-(2-(2-propenoyl)-2,6-diazaspiro[3.4]octan-6-yl)-6,7-dihydro-5H-cyclopenta[b]pyridine-3-carbonitirle]	0.769 µM
C=CC(=O)N1CC2(CCN(c3nc4c(c(-c5scnc5C)c3C#N)CCC(c3ccnn3C)C4)C2)C1 [Example 13-27, (7S)-7-(1-methyl-1H-pyrazol-5-yl)-4-(4-methyl-1,3-thiazol-5-yl)-2-(2-(2-propenoyl)-2,6-diazaspiro[3.4]octan-6-yl)-5,6,7,8-tetrahydro-3-quinolinecarbonitrile|(7R)-7-(1-methyl-1H-pyrazol-5-yl)-4-(4-methyl-1,3-thiazol-5-yl)-2-(2-(2-propenoyl)-2,6-diazaspiro[3.4]octan-6-yl)-5,6,7,8-tetrahydro-3-quinolinecarbonitrile]	0.231 µM
C=CC(=O)N1CC2(CCN(c3nc4c(c(-c5c(O)ccc6ccccc56)c3C#N)COC(C)(C)C4)C2)C1 [Example 13-34, 4-(2-hydroxy-1-naphthalenyl)-7,7-dimethyl-2-(2-(2-propenoyl)-2,6-diazaspiro[3.4]octan-6-yl)-7,8-dihydro-5H-pyrano[4,3-b]pyridine-3-carbonitrile]	0.946 µM
C=CC(=O)N1CC2(CCN(c3nc4c(c(-c5c(C)ccc6[nH]ncc56)c3COC)CCC(C)(C)C4)C2)C1 [Example 13-46, 1-(6-(3-(methoxymethyl)-7,7-dimethyl-4-(5-methyl-1H-indazol-4-yl)-5,6,7,8-tetrahydro-2-quinolinyl)-2,6-diazaspiro[3.4]octan-2-yl)-2-propen-1-one]	0.685 µM
C=CC(=O)N1CC2(C1)CN(c1nc3c(c(-c4c(C)ccc5cnn(C)c45)c1C#N)COC(C)(C)C3)CC2(F)F [Example 13-47, 2-(8,8-difluoro-2-(2-propenoyl)-2,6-diazaspiro[3.4]octan-6-yl)-4-(1,6-dimethyl-1H-indazol-7-yl)-7,7-dimethyl-7,8-dihydro-5H-pyrano[4,3-b]pyridine-3-carbonitrile]	0.298 µM
C=CC(=O)N1CC2(CCN(c3nc4c(c(-c5c(C)ccc6cnn(C)c56)c3C#N)COC(C)(C)C4)C2(C)C)C1 [Example 13-48, 4-(1,6-dimethyl-1H-indazol-7-yl)-2-(5,5-dimethyl-2-(2-propenoyl)-2,6-diazaspiro[3.4]octan-6-yl)-7,7-dimethyl-7,8-dihydro-5H-pyrano[4,3-b]pyridine-3-carbonitrile]	0.664 µM
C=CC(=O)N1CC2(CCN(c3nc4c(c(-c5c(C)ccc6cnn(C)c56)c3C#N)COC4(C)C)C2)C1 [Example 13-55, 4-(1,6-dimethyl-1H-indazol-7-yl)-7,7-dimethyl-2-(2-(2-propenoyl)-2,6-diazaspiro[3.4]octan-6-yl)-5,7-dihydrofuro[3,4-b]pyridine-3-carbonitrile]	0.877 µM
C=CC(=O)N1CC2(CCN(c3nc4c(c(-c5c(C)ccc6[nH]ncc56)c3C#N)CCC4(F)F)C2)C1 [Example 13-58, 7,7-difluoro-4-(5-methyl-1H-indazol-4-yl)-2-(2-(2-propenoyl)-2,6-diazaspiro[3.4]octan-6-yl)-6,7-dihydro-5H-cyclopenta[b]pyridine-3-carbonitrile]	0.514 µM
C=CC(=O)N1CC2(CCN(c3nc4c(c(-c5c(C)ccc6cnn(C)c56)c3C#N)C[C@H]3C[C@@H]4C3(C)C)[C@@H]2CO)C1 [Example 13-61, (1R,9R)-6-(1,6-dimethyl-1H-indazol-7-yl)-4-((5S)-5-(hydroxymethyl)-2-(2-propenoyl)-2,6-diazaspiro[3.4]octan-6-yl)-10,10-dimethyl-3-azatricyclo[7.1.1.0^2,7]undeca-2,4,6-triene-5-carbonitrile]	0.332 µM
C=CC(=O)N1CC2(CCN(c3nc4c(c(-c5c(C)ccc6cnn(C)c56)c3C#N)CCC3CC43)C2CO)C1 (stereo not drawn) [Example 13-63]	0.145 µM
C=CC(=O)N1CC2(CCN(c3nc4c(c(-c5c(O)cccc5Cl)c3C#N)C[C@H]3C[C@@H]4C3)C2)C1 [Example 13-64, (1S,9S)-6-(2-chloro-6-hydroxyphenyl)-4-(2-(2-propenoyl)-2,6-diazaspiro[3.4]octan-6-yl)-3-azatricyclo[7.1.1.0^2,7]undeca-2,4,6-triene-5-carbonitrile]	1.08 µM
C=CC(=O)N1CC2(CCN(c3nc4c(c(-c5cc(O)c(F)c6ccccc56)c3C#N)COC(C)(C)C4)C2)C1 [Example 13-71, 4-(4-fluoro-3-hydroxy-1-naphthalenyl)-7,7-dimethyl-2-(2-(2-propenoyl)-2,6-diazaspiro[3.4]octan-6-yl)-7,8-dihydro-5H-pyrano[4,3-b]pyridine-3-carbonitrile]	0.366 µM
C=CC(=O)N1CC2(CCN(c3nc4c(c(-c5cc(O)c(F)c6ccccc56)c3C#N)CCC3CC43)C2)C1 [Example 13-72, (6aR,7aR)-4-(4-fluoro-3-hydroxy-1-naphthalenyl)-2-(2-(2-propenoyl)-2,6-diazaspiro[3.4]octan-6-yl)-6,6a,7,7a-tetrahydro-5H-cyclopropa[h]quinoline-3-carbonitrile|(6aS,7aS)-4-(4-fluoro-3-hydroxy-1-naphthalenyl)-2-(2-(2-propenoyl)-2,6-diazaspiro[3.4]octan-6-yl)-6,6a,7,7a-tetrahydro-5H-cyclopropa[h]quinoline-3-carbonitrile]	0.564 µM
CN(C)C/C=C/C(=O)N1CC2(CCN(c3nc4c(c(-c5cc(O)cc6ccccc56)c3C#N)CCC3CC43)C2)C1 [Example 13-85, (6aR,7aS)-2-(2-((2E)-4-(dimethylamino)-2-butenoyl)-2,6-diazaspiro[3.4]octan-6-yl)-4-(3-hydroxy-1-naphthalenyl)-6,6a,7,7a-tetrahydro-5H-cyclopropa[h]quinoline-3-carbontirile|(6aS,7aR)-2-(2-((2E)-4-(dimethylamino)-2-butenoyl)-2,6-diazaspiro[3.4]octan-6-yl)-4-(3-hydroxy-1-naphthalenyl)-6,6a,7,7a-tetrahydro-5H-cyclopropa[h]quinoline-3-carbonitrile]	0.316 µM

More lines, in order of falling IC50, values ahead:

IC50	SMILES
1.78 µM	C=CC(=O)N1CC2(CCN(c3nc4c(c(-c5c(O)ccc6ccccc56)c3C#N)C[C@H]3C[C@@H]4C3)C2)C1 [Example 13-35, (1S,9S)-6-(2-hydroxy-1-naphthalenyl)-4-(2-(2-propenoyl)-2,6-diazaspiro[3.4]octan-6-yl)-3-azatricyclo[7.1.1.0^2,7]undeca-2,4,6-triene-5-carbonitrile]
1.42 µM	C=CC(=O)N1CC2(CCN(c3nc4c(c(-c5c(C)cccc5O)c3C#N)C[C@H]3C[C@@H]4C3)C2)C1 [Example 13-38, (1S,9S)-6-(2-hydroxy-6-methylphenyl)-4-(2-(2-propenoyl)-2,6-diazaspiro[3.4]octan-6-yl)-3-azatricyclo[7.1.1.0^2,7]undeca-2,4,6-triene-5-carbonitrile]
0.715 µM	C=CC(=O)N1CC2(CCN(c3nc4c(c(-c5c(C)ccc6cnn(C)c56)c3C#N)C[C@H]3C[C@@H]4C3)[C@H]2C)C1 [Example 13-30, (1S,9R)-6-(1,6-dimethyl-1H-indazol-7-yl)-4-((5S)-5-methyl-2-(2-propenoyl)-2,6-diazaspiro[3.4]octan-6-yl)-3-azatricyclo[7.1.1.0^2,7]undeca-2,4,6-triene-5-carbonitrile]
0.676 µM	C=CC(=O)N1CC2(CCN(c3nc4c(c(-c5cc(C)cc6ccccc56)c3C#N)COC(C)(C)C4)C2)C1 [Example 13-33, 7,7-dimethyl-4-(3-methyl-1-naphthalenyl)-2-(2-(2-propenoyl)-2,6-diazaspiro[3.4]octan-6-yl)-7,8-dihydro-5H-pyrano[4,3-b]pyridine-3-carbonitrile]
0.334 µM	C=CC(=O)N1CC2(CCN(c3nc4c(c(-c5c(C)ccc6cnn(C)c56)c3C#N)C[C@H]3C[C@@H]4C3(C)C)[C@H]2CO)C1 [Example 13-62, (1R,9R)-6-(1,6-dimethyl-1H-indazol-7-yl)-4-((5R)-5-(hydroxymethyl)-2-(2-propenoyl)-2,6-diazaspiro[3.4]octan-6-yl)-10,10-dimethyl-3-azatricyclo[7.1.1.0^2,7]undeca-2,4,6-triene-5-carbonitrile]
0.324 µM	Cc1ccc2[nH]ncc2c1-c1c(C#N)c(N2CCC3(CN(C(=O)/C=C/CO)C3)C2)nc2c1CCC(C)(C)C2 [Example 13-9, 2-(2-((2E)-4-hydroxy-2-butenoyl)-2,6-diazaspiro[3.4]octan-6-yl)-7,7-dimethyl-4-(5-methyl-1H-indazol-4-yl)-5,6,7,8-tetrahydro-3-quinolinecarbonitrile]
0.291 µM	C=CC(=O)N1CC2(CCN(c3nc4c(c(-c5cc(O)c(F)c6ccccc56)c3C#N)CC(C)(C)C4)C2)C1 [Example 13-70, 4-(4-fluoro-3-hydroxy-1-naphthalenyl)-6,6-dimethyl-2-(2-(2-propenoyl)-2,6-diazaspiro[3.4]octan-6-yl)-6,7-dihydro-5H-cyclopenta[b]pyridine-3-carbonitrile]

From patent US20240059703A1 (AMGEN INC., priority 2021, published 2024)
